According to ChEMBL document CHEMBL4433234, “3H-Imidazo[4,5-b]pyridine-6-carboxylic acid derivatives as rexinoids with reduced teratogenicity” (Bioorg Med Chem Lett, 2019):
Converted amounts (≈) assume the structure as drawn.

Key:
[1] = Toxicity in fertilized zebra fish embryos assessed as hatching rate at 100 nM incubated for 120 hrs post fertilization by microscopic method relative to untreated control (reference value: 100%); design: species or system Danio rerio; settings: zebrafish, 0.1 µM
[2] = Toxicity in fertilized zebra fish embryos assessed as hatching rate at 300 nM incubated for 120 hrs post fertilization by microscopic method relative to untreated control (reference value: 100%); design: species or system Danio rerio; settings: zebrafish, 0.3 µM
[3] = Toxicity in fertilized zebra fish embryos assessed as hatching rate at 1000 nM incubated for 120 hrs post fertilization by microscopic method relative to untreated control (reference value: 100%); design: species or system Danio rerio; settings: zebrafish, 1 µM
[4] = Toxicity in fertilized zebra fish embryos assessed as survival rate at 100 nM incubated for 120 hrs post fertilization by microscopic method relative to untreated control (reference value: 100%); design: species or system Danio rerio; settings: zebrafish
[5] = Toxicity in fertilized zebra fish embryos assessed as survival rate at 300 nM incubated for 120 hrs post fertilization by microscopic method relative to untreated control (reference value: 100%); design: species or system Danio rerio; settings: zebrafish
[6] = Toxicity in fertilized zebra fish embryos assessed as survival rate at 1000 nM incubated for 120 hrs post fertilization by microscopic method relative to untreated control (reference value: 100%); design: species or system Danio rerio; settings: zebrafish
[7] = Toxicity in fertilized zebra fish embryo assessed as teratogenic effect by measuring malformation of spine curvature and head enlargement at 100 nM after 120 hrs post fertilization by microscopic method relative to control; design: species or system Danio rerio; settings: zebrafish, 0.1 µM
[8] = Toxicity in fertilized zebra fish embryo assessed as teratogenic effect by measuring malformation of spine curvature and head enlargement at 300 nM after 120 hrs post fertilization by microscopic method relative to control; design: species or system Danio rerio; settings: zebrafish, 0.3 µM
[9] = Toxicity in fertilized zebra fish embryo assessed as teratogenic effect by measuring malformation of spine curvature and head enlargement at 1000 nM after 120 hrs post fertilization by microscopic method relative to control; design: species or system Danio rerio; settings: zebrafish, 1 µM
[10] = target: T1, Retinoic acid receptor RXR-alpha (Homo sapiens, UniProt P19793); assay: Agonist activity at human RXRalpha expressed in African green monkey COS1 cells harboring CRBP2-tk-luc reporter incubated for 18 hrs by steady-glo luciferase reporter gene assay; format: cell-based
T1 sequence (P19793 whole entry): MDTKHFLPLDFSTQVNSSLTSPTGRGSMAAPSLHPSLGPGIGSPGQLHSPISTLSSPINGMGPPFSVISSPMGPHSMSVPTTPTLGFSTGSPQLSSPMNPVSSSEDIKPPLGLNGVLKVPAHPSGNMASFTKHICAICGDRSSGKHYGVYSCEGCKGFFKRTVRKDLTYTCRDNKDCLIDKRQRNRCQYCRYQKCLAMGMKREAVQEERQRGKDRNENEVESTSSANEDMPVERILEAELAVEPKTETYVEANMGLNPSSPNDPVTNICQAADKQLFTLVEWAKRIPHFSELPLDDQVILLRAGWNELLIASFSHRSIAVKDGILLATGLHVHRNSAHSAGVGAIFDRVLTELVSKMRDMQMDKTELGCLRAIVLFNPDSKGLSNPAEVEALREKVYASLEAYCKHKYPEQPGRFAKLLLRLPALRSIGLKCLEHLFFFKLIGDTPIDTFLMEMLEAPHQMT

[11] = Aqueous solubility in pH 7.4 PBS buffer at 1 mM after 6 hrs by HPLC analysis; format: physicochemical
[12] = Toxicity in fertilized zebra fish embryo assessed as induction of malformation of spine curvature at 1000 nM after 120 hrs post fertilization by microscopic method relative to control; design: species or system Danio rerio; settings: zebrafish, 1 µM
[13] = Toxicity in fertilized zebra fish embryos assessed as hatching rate at 287 nM incubated for 120 hrs post fertilization by microscopic method relative to untreated control (reference value: 100%); design: species or system Danio rerio; settings: zebrafish, 0.287 µM
[14] = Toxicity in fertilized zebra fish embryos assessed as survival rate at 287 nM incubated for 120 hrs post fertilization by microscopic method relative to untreated control (reference value: 100%); design: species or system Danio rerio; settings: zebrafish

| SMILES | Activity [1] [%] | Activity [2] [%] | Activity [3] [%] | survival at 120 h, 0.1 µM [4] [%] | survival at 120 h, 0.3 µM [5] [%] | survival at 120 h, 1 µM [6] [%] | Activity [7] [%] | Activity [8] [%] | Activity [9] [%] | EC50 [10] [nM] | solubility at 6 h, 1000 µM [11] [µM] | Activity [12] | Activity [13] [%] | survival at 120 h, 0.287 µM [14] [%] |
| --- | --- | --- | --- | --- | --- | --- | --- | --- | --- | --- | --- | --- | --- | --- |
| Cc1cc2c(cc1-n1c(C(F)(F)F)nc3cc(C(=O)O)cnc31)C(C)(C)CCC2(C)C | 92 | 100 | 83 | 100 | 100 | 100 | 0 | 0 | 10 | 670 | 222 (≈ 95.8 µg/mL) | Non-Toxic |  |  |
| Cc1cc2c(cc1-n1c(C(F)(F)F)nc3cc(C(=O)O)ccc31)C(C)(C)CCC2(C)C | 83 | 92 | 100 | 100 | 100 | 100 | 0 | 0 | 17 |  | 12.8 (≈ 5.51 µg/mL) |  |  |  |
| Cc1cc2c(cc1-n1nnc3cc(C(=O)O)ccc31)C(C)(C)CCC2(C)C |  |  |  | 100 | 100 | 100 |  |  |  |  | 305 (≈ 111 µg/mL) |  |  |  |
| C=C(c1ccc(C(=O)O)cc1)c1cc2c(cc1C)C(C)(C)CCC2(C)C [BEXAROTENE] | 67 to 100 |  |  | 100 |  |  | 100 |  |  |  | 0.25 (≈ 0.0871 µg/mL) |  | 99 | 99 |
| Cc1cc2c(cc1-n1nnc3cc(C(=O)O)cnc31)C(C)(C)CCC2(C)C | 100 | 100 | 100 | 100 | 100 | 100 | 0 | 0 | 25 | 275 | 670 (≈ 244 µg/mL) | Toxic |  |  |
